Test results as given in patent US20260115336A1, “MOFS WITH BETA-EMITTERS FOR RADIOTHERAPY” (Node Pharma AS, priority 2023, published 2026).

How the values were obtained:
[1] = Retention of Lu177 in the MOF in serum, iTLC; assay type: in vitro ADME; conditions: fetal bovine serum, after 30 minutes
Description: (§1) Radiolabelling was performed by adding 60 kBq of [^177Lu]LuCl3 solution to a 400 μL suspension of UiO-66-(COOH)2 (0.6 mg) in 0.005 mol/L MES buffer (pH 6). A control sample consisting of 60 kBq [^177Lu]LuCl3 in 0.005 mol/L MES buffer was prepared in parallel. The samples were kept at 37° C., under agitation for 24 hours. 35 μL of each sample was dispersed in 400 μL of fetal bovine serum. After 30 minutes, both the radiolabelled-dose and the serum-dose suspensions were subjected to instant thin layer chromatography (iTLC) under the following conditions: 5 μL drops were placed on glass fiber iTLC strips, which were then placed in a TLC chamber with 20 mM sodium citrate (pH 6.5) as mobile phase. Upon completion, the application point and the top of the iTLC strip were measured separately using a Hidex gamma counter.

[2] = Lu177 radiolabelling (adsorption) of the MOF, iTLC; assay type: physicochemical; conditions: 60 kBq [177Lu]LuCl3, 0.005 mol/L MES buffer pH 6, 37° C., 24 hours
Description: as §1

[Cl][Lu]([Cl])[Cl] [LuCl3, [^177Lu]LuCl3]
Serum retention (retention of Lu in serum) [1]: 3% | Labelling, RCP (radiochemical purity) [2]: 1%
